Broadly, the Tm is the temperature at the midpoint of the melting transition.

The structures appear in SMILES notation.

The results in this text go back to ChEMBL document CHEMBL1153884, “Oligonucleotide-polyamine conjugates: influence of length and position of 2'-attached polyamines on duplex stability and antisense effect” (2009).

Assay [1] concerns Nucleic Acid. Nature of the assay: Duplex stability of RNA counter strand assessed as melting temperature. It is filed as nucleic-acid assay.
The subject of assay [2] is Nucleic Acid. Nature of the assay: Duplex stability of DNA counter strand assessed as melting temperature. It is filed as nucleic-acid assay.

Turning to `Cc1cn([C@@H]2O[C@H](COP(=O)(O)O[C@H]3[C@@H](O)[C@H](n4ccc(N)nc4=O)O[C@@H]3COP(=O)(O)O[C@H]3[C@@H](O)[C@H](n4ccc(N)nc4=O)O[C@@H]3COP(=O)(O)O[C@H]3[C@@H](O)[C@H](n4ccc(N)nc4=O)O[C@@H]3COP(=O)(O)O[C@H]3[C@@H](O)[C@H](n4cnc5c(N)ncnc54)O[C@@H]3COP(=O)(O)O[C@H]3[C@@H](O)[C@H](n4cnc5c(=O)[nH]c(N)nc54)O[C@@H]3COP(=O)(O)O[C@H]3[C@@H](O)[C@H](n4ccc(N)nc4=O)O[C@@H]3COP(=O)(O)O[C@H]3[C@@H](O)[C@H](n4cnc5c(=O)[nH]c(N)nc54)O[C@@H]3COP(=O)(O)O[C@H]3[C@@H](NCCCNCCCCNCCCN)[C@H](n4ccc(=O)[nH]c4=O)O[C@@H]3COP(=O)(O)O[C@H]3[C@@H](O)[C@H](n4cnc5c(=O)[nH]c(N)nc54)O[C@@H]3COP(=O)(O)O[C@H]3[C@@H](O)[C@H](n4ccc(N)nc4=O)O[C@@H]3COP(=O)(O)O[C@H]3[C@@H](O)[C@H](n4cnc5c(=O)[nH]c(N)nc54)O[C@@H]3COP(=O)(O)O[C@H]3[C@@H](O)[C@H](n4ccc(N)nc4=O)O[C@@H]3COP(=O)(O)O[C@H]3[C@@H](O)[C@H](n4ccc(N)nc4=O)O[C@@H]3COP(=O)(O)O[C@H]3[C@@H](O)[C@H](n4cnc5c(N)ncnc54)O[C@@H]3COP(=O)(O)O[C@H]3C[C@H](n4cc(C)c(=O)[nH]c4=O)O[C@@H]3CO)[C@@H](OP(=O)(O)OC[C@H]3O[C@@H](n4ccc(N)nc4=O)[C@H](O)[C@@H]3OP(=O)(O)OC[C@H]3O[C@@H](n4ccc(=O)[nH]c4=O)[C@H](NCCCNCCCCNCCCN)[C@@H]3O)[C@H]2NCCCNCCCCNCCCN)c(=O)[nH]c1=O`, the figures for the Tm in assay [1] and in assay [2] were 45.8 °C and 70.6 °C, respectively.
Take `Cc1cn([C@H]2C[C@H](OP(O)(=S)OC[C@H]3O[C@@H](n4cnc5c(N)ncnc54)[C@H](O)[C@@H]3OP(O)(=S)OC[C@H]3O[C@@H](n4ccc(N)nc4=O)[C@H](O)[C@@H]3OP(O)(=S)OC[C@H]3O[C@@H](n4ccc(N)nc4=O)[C@H](O)[C@@H]3OP(O)(=S)OC[C@H]3O[C@@H](n4cnc5c(=O)[nH]c(N)nc54)[C@H](O)[C@@H]3OP(O)(=S)OC[C@H]3O[C@@H](n4ccc(N)nc4=O)[C@H](O)[C@@H]3OP(O)(=S)OC[C@H]3O[C@@H](n4cnc5c(=O)[nH]c(N)nc54)[C@H](O)[C@@H]3OP(O)(=S)OC[C@H]3O[C@@H](n4cc(C)c(=O)[nH]c4=O)C[C@@H]3OP(O)(=S)OC[C@H]3O[C@@H](n4cnc5c(=O)[nH]c(N)nc54)[C@H](O)[C@@H]3OP(O)(=S)OC[C@H]3O[C@@H](n4ccc(N)nc4=O)[C@H](O)[C@@H]3OP(O)(=S)OC[C@H]3O[C@@H](n4cnc5c(=O)[nH]c(N)nc54)[C@H](O)[C@@H]3OP(O)(=S)OC[C@H]3O[C@@H](n4cnc5c(N)ncnc54)[C@H](O)[C@@H]3OP(O)(=S)OC[C@H]3O[C@@H](n4ccc(N)nc4=O)[C@H](O)[C@@H]3OP(O)(=S)OC[C@H]3O[C@@H](n4ccc(N)nc4=O)[C@H](O)[C@@H]3OP(O)(=S)OC[C@H]3O[C@@H](n4ccc(N)nc4=O)[C@H](O)[C@@H]3OP(O)(=S)OC[C@H]3O[C@@H](n4cc(C)c(=O)[nH]c4=O)C[C@@H]3OP(O)(=S)OC[C@H]3O[C@@H](n4ccc(N)nc4=O)[C@H](O)[C@@H]3OP(O)(=S)OC[C@H]3O[C@@H](n4ccc(=O)[nH]c4=O)[C@H](NCCCNCCCCNCCCN)[C@@H]3O)[C@@H](CO)O2)c(=O)[nH]c1=O` (some centres not stated): the Tm in assay [1] is 53.2 °C; in assay [2], 74.3 °C.
For `Cc1cn([C@H]2C[C@H](OP(=O)(O)OC[C@H]3O[C@@H](n4cnc5c(N)ncnc54)[C@H](O)[C@@H]3OP(=O)(O)OC[C@H]3O[C@@H](n4ccc(N)nc4=O)[C@H](O)[C@@H]3OP(=O)(O)OC[C@H]3O[C@@H](n4ccc(N)nc4=O)[C@H](O)[C@@H]3OP(=O)(O)OC[C@H]3O[C@@H](n4cnc5c(=O)[nH]c(N)nc54)[C@H](O)[C@@H]3OP(=O)(O)OC[C@H]3O[C@@H](n4ccc(N)nc4=O)[C@H](O)[C@@H]3OP(=O)(O)OC[C@H]3O[C@@H](n4cnc5c(=O)[nH]c(N)nc54)[C@H](O)[C@@H]3OP(=O)(O)OC[C@H]3O[C@@H](n4cc(C)c(=O)[nH]c4=O)C[C@@H]3OP(=O)(O)OC[C@H]3O[C@@H](n4cnc5c(=O)[nH]c(N)nc54)[C@H](O)[C@@H]3OP(=O)(O)OC[C@H]3O[C@@H](n4ccc(N)nc4=O)[C@H](O)[C@@H]3OP(=O)(O)OC[C@H]3O[C@@H](n4cnc5c(=O)[nH]c(N)nc54)[C@H](O)[C@@H]3OP(=O)(O)OC[C@H]3O[C@@H](n4cnc5c(N)ncnc54)[C@H](O)[C@@H]3OP(=O)(O)OC[C@H]3O[C@@H](n4ccc(N)nc4=O)[C@H](O)[C@@H]3OP(=O)(O)OC[C@H]3O[C@@H](n4ccc(N)nc4=O)[C@H](O)[C@@H]3OP(=O)(O)OC[C@H]3O[C@@H](n4ccc(N)nc4=O)[C@H](O)[C@@H]3OP(=O)(O)OC[C@H]3O[C@@H](n4cc(C)c(=O)[nH]c4=O)C[C@@H]3OP(=O)(O)OC[C@H]3O[C@@H](n4ccc(N)nc4=O)[C@H](O)[C@@H]3OP(=O)(O)OC[C@H]3O[C@@H](n4ccc(=O)[nH]c4=O)[C@H](NCCCNCCCCNCCCN)[C@@H]3O)[C@@H](CO)O2)c(=O)[nH]c1=O`, in that order: 63 °C and 80 °C.
On the same counts, the results for `Cc1cn([C@@H]2O[C@H](CO)CN2c2ncnc3c2ncn3[C@@H]2O[C@H](COP(=O)(O)O[C@H]3[C@@H](O)[C@H](n4cnc5c(=O)[nH]c(N)nc54)O[C@@H]3COP(=O)(O)O[C@H]3[C@@H](O)[C@H](n4ccc(N)nc4=O)O[C@@H]3COP(=O)(O)O[C@H]3[C@@H](O)[C@H](n4cnc5c(=O)[nH]c(N)nc54)O[C@@H]3COP(=O)(O)O[C@H]3C[C@H](n4cc(C)c(=O)[nH]c4=O)O[C@@H]3COP(=O)(O)O[C@H]3[C@@H](O)[C@H](n4cnc5c(=O)[nH]c(N)nc54)O[C@@H]3COP(=O)(O)O[C@H]3[C@@H](O)[C@H](n4ccc(N)nc4=O)O[C@@H]3COP(=O)(O)O[C@H]3[C@@H](O)[C@H](n4cnc5c(=O)[nH]c(N)nc54)O[C@@H]3COP(=O)(O)O[C@H]3[C@@H](O)[C@H](n4ccc(N)nc4=O)O[C@@H]3COP(=O)(O)O[C@H]3[C@@H](O)[C@H](n4ccc(N)nc4=O)O[C@@H]3COP(=O)(O)O[C@H]3[C@@H](O)[C@H](n4cnc5c(N)ncnc54)O[C@@H]3COP(=O)(O)O[C@H]3[C@@H](NCCCNCCCCNCCCN)[C@H](n4ccc(=O)[nH]c4=O)O[C@@H]3CO)[C@@H](OP(=O)(O)OC[C@H]3O[C@@H](n4ccc(N)nc4=O)[C@H](O)[C@@H]3OP(=O)(O)OC[C@H]3O[C@@H](n4ccc(N)nc4=O)[C@H](O)[C@@H]3OP(=O)(O)OC[C@H]3O[C@@H](n4ccc(N)nc4=O)[C@H](O)[C@@H]3OP(=O)(O)OC[C@H]3O[C@@H](n4cc(C)c(=O)[nH]c4=O)C[C@@H]3OP(=O)(O)OC[C@H]3O[C@@H](n4ccc(N)nc4=O)[C@H](O)[C@@H]3OP(=O)(O)OC[C@H]3O[C@@H](n4ccc(=O)[nH]c4=O)[C@H](NCCCNCCCCNCCCN)[C@@H]3O)[C@H]2O)c(=O)[nH]c1=O` are 61.8 °C and 79.7 °C.
For `Cc1cn([C@H]2C[C@H](OP(=O)(O)OC[C@H]3O[C@@H](n4cnc5c(N)ncnc54)[C@H](O)[C@@H]3OP(=O)(O)OC[C@H]3O[C@@H](n4ccc(N)nc4=O)[C@H](O)[C@@H]3OP(=O)(O)OC[C@H]3O[C@@H](n4ccc(N)nc4=O)[C@H](O)[C@@H]3OP(=O)(O)OC[C@H]3O[C@@H](n4cnc5c(=O)[nH]c(N)nc54)[C@H](O)[C@@H]3OP(=O)(O)OC[C@H]3O[C@@H](n4ccc(N)nc4=O)[C@H](O)[C@@H]3OP(=O)(O)OC[C@H]3O[C@@H](n4cnc5c(=O)[nH]c(N)nc54)[C@H](O)[C@@H]3OP(=O)(O)OC[C@H]3O[C@@H](n4ccc(=O)[nH]c4=O)[C@H](NCCCNCCCCNCCCN)[C@@H]3OP(=O)(O)OC[C@H]3O[C@@H](n4cnc5c(=O)[nH]c(N)nc54)[C@H](O)[C@@H]3OP(=O)(O)OC[C@H]3O[C@@H](n4ccc(N)nc4=O)[C@H](O)[C@@H]3OP(=O)(O)OC[C@H]3O[C@@H](n4cnc5c(=O)[nH]c(N)nc54)[C@H](O)[C@@H]3OP(=O)(O)OC[C@H]3O[C@@H](n4cnc5c(N)ncnc54)[C@H](O)[C@@H]3OP(=O)(O)OC[C@H]3O[C@@H](n4ccc(N)nc4=O)[C@H](O)[C@@H]3OP(=O)(O)OC[C@H]3O[C@@H](n4ccc(N)nc4=O)[C@H](O)[C@@H]3OP(=O)(O)OC[C@H]3O[C@@H](n4ccc(N)nc4=O)[C@H](O)[C@@H]3OP(=O)(O)OC[C@H]3O[C@@H](n4cc(C)c(=O)[nH]c4=O)C[C@@H]3OP(=O)(O)OC[C@H]3O[C@@H](n4ccc(N)nc4=O)[C@H](O)[C@@H]3OP(=O)(O)OC[C@H]3O[C@@H](n4ccc(=O)[nH]c4=O)[C@H](NCCCNCCCCNCCCN)[C@@H]3O)[C@@H](CO)O2)c(=O)[nH]c1=O`, in that order: 57.8 °C and 74.5 °C.
In the case of `Cc1cn([C@H]2C[C@H](OP(O)(=S)OC[C@H]3O[C@@H](n4cnc5c(N)ncnc54)[C@H](O)[C@@H]3OP(O)(=S)OC[C@H]3O[C@@H](n4ccc(N)nc4=O)[C@H](O)[C@@H]3OP(O)(=S)OC[C@H]3O[C@@H](n4ccc(N)nc4=O)[C@H](O)[C@@H]3OP(O)(=S)OC[C@H]3O[C@@H](n4cnc5c(=O)[nH]c(N)nc54)[C@H](O)[C@@H]3OP(O)(=S)OC[C@H]3O[C@@H](n4ccc(N)nc4=O)[C@H](O)[C@@H]3OP(O)(=S)OC[C@H]3O[C@@H](n4cnc5c(=O)[nH]c(N)nc54)[C@H](O)[C@@H]3OP(O)(=S)OC[C@H]3O[C@@H](n4ccc(=O)[nH]c4=O)[C@H](NCCCNCCCCNCCCN)[C@@H]3OP(O)(=S)OC[C@H]3O[C@@H](n4cnc5c(=O)[nH]c(N)nc54)[C@H](O)[C@@H]3OP(O)(=S)OC[C@H]3O[C@@H](n4ccc(N)nc4=O)[C@H](O)[C@@H]3OP(O)(=S)OC[C@H]3O[C@@H](n4cnc5c(=O)[nH]c(N)nc54)[C@H](O)[C@@H]3OP(O)(=S)OC[C@H]3O[C@@H](n4cnc5c(N)ncnc54)[C@H](O)[C@@H]3OP(O)(=S)OC[C@H]3O[C@@H](n4ccc(N)nc4=O)[C@H](O)[C@@H]3OP(O)(=S)OC[C@H]3O[C@@H](n4ccc(N)nc4=O)[C@H](O)[C@@H]3OP(O)(=S)OC[C@H]3O[C@@H](n4ccc(N)nc4=O)[C@H](O)[C@@H]3OP(O)(=S)OC[C@H]3O[C@@H](n4cc(C)c(=O)[nH]c4=O)C[C@@H]3OP(O)(=S)OC[C@H]3O[C@@H](n4ccc(N)nc4=O)[C@H](O)[C@@H]3OP(O)(=S)OC[C@H]3O[C@@H](n4ccc(=O)[nH]c4=O)[C@H](NCCCNCCCCNCCCN)[C@@H]3O)[C@@H](CO)O2)c(=O)[nH]c1=O` (some centres not stated), the Tm in assay [1] was 53 °C; in assay [2], 66.8 °C.
